According to US9771378B2 (Denali Therapeutics, Inc., priority 2014, dated 2017):

System: Aβ42 (human neuroglioma H4 cells expressing human wild type APP751)
Assay: In vitro cell screening assay with sandwich ELISA quantification of Aβ42 peptide
Format: cell-based
Details: H4 cells stably expressing human wild type APP751; Pro293 chemically defined medium; compounds 0.003-10 μM; incubated overnight (16-18 h); supernatant Aβ42 by sandwich ELISA; normalized to DMSO and DAPT; read-out: Aβ42 H4 Prot Fre IC50
Outline: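 Aβ42 in supernatants was quantified by sandwich ELISA with C-terminal-specific capture and 4G8-HRP detection, absorbance at 450 nm. Stable APP751-expressing human H4 cells received compound at 0.003-10 μM (0.33% DMSO) overnight (16-18 h). IC50 was derived from percent-of-DMSO-control data by nonlinear variable-slope fit.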

First: COc1cc(Nc2ncc3c(n2)N2CCCC2CO3)ccc1-n1cnc(C)c1 (single isomer, unassigned; (+)) [Example 290B, (+)-N-(3-methoxy-4-(4-methyl-1H-imidazol-1-yl)phenyl)-6a, 7,8,9-tetrahydro-6H-pyrimido [5,4-b] pyrrolo [1,2-d] [1, 4] oxazin-2-amine]
Second: COc1cc(Nc2ncc3c(n2)N2CCC(F)(F)C2CO3)ccc1-n1cnc(C)c1 (single isomer, unassigned; (+)) [Example 304B, (+)-7,7-difluoro-N-(3-methoxy-4-(4-methyl-1H-imidazol-1-yl)phenyl)-6a, 7,8,9-tetrahydro-6H-pyrimido [5,4-b] pyrrolo [1,2-d] [1, 4] oxazin-2-amine]
The IC50 of the first is 2-fold higher: 151 nM for the first, 75 nM for the second.

Going from `COc1cc(Nc2ncc3c(n2)N2C(=O)CCC2CO3)cnc1-n1cnc(C)c1` (single isomer, unassigned; (+)) [Example 302A, (+)-2-((5-methoxy-6-(4-methyl-1H-imidazol-1-yl)pyridin-3-yl)amino)-6,6a, 7,8-tetrahydro-9H-pyrimido [5,4-b] pyrrolo [1,2-d] [1, 4] oxazin-9-one] to `COc1cc(Nc2ncc3c(n2)N2CCC(F)(F)C2CO3)cnc1-n1cnc(C)c1` (single isomer, unassigned; (+)) [Example 305A, (+)-7,7-difluoro-N-(5-methoxy-6-(4-methyl-1H-imidazol-1-yl)pyridin-3-yl)-6a, 7,8,9-tetrahydro-6H-pyrimido [5,4-b] pyrrolo [1,2-d] [1, 4] oxazin-2-amine], the IC50 falls from over 3000 nM to 132 nM. The second is the more potent here.

Compared with `Cc1cn(-c2ccc(Nc3ncc4c(n3)N(C)C(c3cc(F)cc(F)c3)CO4)cc2)cn1` (single isomer, unassigned; (-)) [Example 23A], `Cc1cn(-c2ccc(Nc3ncc4c(n3)N(C)C(c3cc(F)cc(F)c3)CO4)cc2F)cn1` (single isomer, unassigned; (-)) [Example 33B] is 5.2-fold lower in IC50: 2040 nM for the first, 389 nM for the second. The second is the more potent here.

`Cc1cc(-c2ccc(Nc3ncc4c(n3)N(C)C(c3ccccc3)CO4)cc2)ccn1` (single isomer, unassigned; (-)) [Example 24B] and `Cc1cc(-c2ccc(Nc3ncc4c(n3)N(C)C(c3ccccc3C)CO4)cc2)ccn1` (single isomer, unassigned; (-)) [Example 29A] are within 1.5-fold of each other in IC50: 1020 nM for the first, 1100 nM for the second.

`Cc1cn(-c2ccc(Nc3ncc4c(n3)N(C)C(c3ccccc3)CO4)cc2F)cn1` (single isomer, unassigned; (-)) [Example 25B] and `Cc1cn(-c2ccc(Nc3ncc4c(n3)N(C)C(c3ccccc3C)CO4)cc2F)cn1` (single isomer, unassigned; (-)) [Example 34B] are within 1.5-fold of each other in IC50: 334 nM for the first, 460 nM for the second.

`Cc1cn(-c2ccc(Nc3ncc4c(n3)N(C)C(c3ccccc3)CO4)cc2)cn1` (single isomer, unassigned; (-)) [Example 26B] and `Cc1cn(-c2ccc(Nc3ncc4c(n3)N(C)C(c3ccccc3C)CO4)cc2)cn1` (single isomer, unassigned; (-)) [Example 43B] cannot be ordered by IC50: 3140 nM for the first, over 300 nM for the second.

Compared with `Cc1cc(-c2ccc(Nc3ncc4c(n3)N(C)C(c3ccccc3)CO4)cc2F)ccn1` (single isomer, unassigned; (-)) [Example 27B], `Cc1cc(-c2ccc(Nc3ncc4c(n3)N(C)C(c3ccccc3C)CO4)cc2F)ccn1` (single isomer, unassigned; (-)) [Example 32A] is 2.4-fold lower in IC50: 2100 nM for the first, 888 nM for the second. The second is the more potent here.

`Cc1cc(-c2ccc(Nc3ncc4c(n3)N(C)C(c3cc(F)cc(F)c3)CO4)cc2)ccn1` (single isomer, unassigned; (-)) [Example 28A] and `Cc1cc(-c2ccc(Nc3ncc4c(n3)N(C)C(c3cc(F)c(F)c(F)c3)CO4)cc2)ccn1` (single isomer, unassigned; (-)) [Example 37B] are within 1.5-fold of each other in IC50: 1960 nM for the first, 1540 nM for the second.

First: COc1cc(Nc2ncc3c(n2)N(C)C(c2cc(F)cc(F)c2)CO3)ccc1-n1cnc(C)c1 (single isomer, unassigned; (-)) [Example 30A]
Second: COc1cc(Nc2ncc3c(n2)N(C)C(c2cc(F)c(F)c(F)c2)CO3)ccc1-n1cnc(C)c1 (single isomer, unassigned; (-)) [Example 40A]
The IC50 of the first is 1.6-fold lower: 177 nM for the first, 279 nM for the second.

Going from `COc1cc(Nc2ncc3c(n2)N(C)C(c2ccccc2C)CO3)ccc1-n1cnc(C)c1` (single isomer, unassigned; (-)) [Example 31A] to `COc1cc(Nc2ncc3c(n2)N(C)C(c2ccccc2Cl)CO3)ccc1-n1cnc(C)c1` (single isomer, unassigned; (-)) [Example 51A], the IC50 falls from 138 nM to 28 nM (4.9-fold). The second is the more potent here.

`COc1cc(Nc2ncc3c(n2)N(C)C(c2ccccc2C)CO3)ccc1-c1ccnc(C)c1` (single isomer, unassigned; (-)) [Example 35A] and `COc1cc(Nc2ncc3c(n2)N(C)C(c2ccccc2Cl)CO3)ccc1-c1ccnc(C)c1` (single isomer, unassigned; (-)) [Example 85A] are within 1.5-fold of each other in IC50: 355 nM for the first, 292 nM for the second.

`Cc1cc(-c2ccc(Nc3ncc4c(n3)N(C)C(c3cc(F)c(F)c(F)c3)CO4)cc2F)ccn1` (single isomer, unassigned; (-)) [Example 36B] and `COc1cc(Nc2ncc3c(n2)N(C)C(c2cc(F)c(F)c(F)c2)CO3)ccc1-c1ccnc(C)c1` (single isomer, unassigned; (-)) [Example 39B] are within 1.5-fold of each other in IC50: 1250 nM for the first, 984 nM for the second.

First: Cc1cc(-c2ccc(Nc3ncc4c(n3)N(C)C(c3cc(F)cc(F)c3)CO4)cc2F)ccn1 (single isomer, unassigned; (-)) [Example 41B]
Second: COc1cc(Nc2ncc3c(n2)N(C)C(c2cc(F)cc(F)c2)CO3)ccc1-c1ccnc(C)c1 (single isomer, unassigned; (-)) [Example 42B]
The IC50 of the first is 1.6-fold higher: 1260 nM for the first, 801 nM for the second. The second is the more potent here.

Compared with `COc1cc(Nc2ncc3c(n2)N(C)C(Cc2ccccc2)CO3)ccc1-n1cnc(C)c1` (single isomer, unassigned; (-)) [Example 47B], `Cc1cn(-c2ccc(Nc3ncc4c(n3)N(C)C(Cc3ccccc3)CO4)cc2F)cn1` (single isomer, unassigned; (-)) [Example 59B] is 7-fold higher in IC50: 65 nM for the first, 452 nM for the second. The first is the more potent here.

Compared with `COc1cc(Nc2ncc3c(n2)N(C)C(c2ccc(F)cc2F)CO3)ccc1-n1cnc(C)c1` (single isomer, unassigned; (-)) [Example 48A], `COc1cc(Nc2ncc3c(n2)N(C)C(c2ccc(F)cc2Cl)CO3)ccc1-n1cnc(C)c1` (single isomer, unassigned; (-)) [Example 93A] is 1.7-fold lower in IC50: 328 nM for the first, 189 nM for the second.

Compared with `COc1cc(Nc2ncc3c(n2)N(C)C(c2ccc(F)cc2)CO3)ccc1-n1cnc(C)c1` (single isomer, unassigned; (-)) [Example 49A], `Cc1cn(-c2ccc(Nc3ncc4c(n3)N(C)C(c3ccc(F)cc3)CO4)cc2F)cn1` (single isomer, unassigned; (-)) [Example 58B] is 10-fold higher in IC50: 191 nM for the first, 1950 nM for the second.

`COc1cc(Nc2ncc3c(n2)N(C)C(c2ccccc2C(F)(F)F)CO3)ccc1-n1cnc(C)c1` (single isomer, unassigned; (-)) [Example 55A] and `COc1cc(Nc2ncc3c(n2)N(C)C(c2ccccc2OC(F)(F)F)CO3)ccc1-n1cnc(C)c1` (single isomer, unassigned; (-)) [Example 60A] are within 1.5-fold of each other in IC50: 102 nM for the first, 92 nM for the second.

Compared with `Cc1cc(-c2ccc(Nc3ncc4c(n3)N(C)C(c3ccc(F)cc3)CO4)cc2F)ccn1` (single isomer, unassigned; (-)) [Example 56B], `COc1cc(Nc2ncc3c(n2)N(C)C(c2ccc(F)cc2)CO3)ccc1-c1ccnc(C)c1` (single isomer, unassigned; (-)) [Example 61A] is 3.4-fold lower in IC50: 3460 nM for the first, 1010 nM for the second.

First: Cc1cc(-c2ccc(Nc3ncc4c(n3)N(C)C(Cc3ccccc3)CO4)cc2F)ccn1 (single isomer, unassigned; (-)) [Example 57B]
Second: COc1cc(Nc2ncc3c(n2)N(C)C(Cc2ccccc2)CO3)ccc1-c1ccnc(C)c1 (single isomer, unassigned; (-)) [Example 68B]
The IC50 of the first is 3.8-fold higher: 880 nM for the first, 229 nM for the second.

`COc1cc(Nc2ncc3c(n2)N(C)C(c2ccccc2OC(F)(F)F)CO3)ccc1-c1ccnc(C)c1` (single isomer, unassigned; (-)) [Example 62A] and `COc1cc(Nc2ncc3c(n2)N(C)C(c2ccccc2C(F)(F)F)CO3)ccc1-c1ccnc(C)c1` (single isomer, unassigned; (-)) [Example 70A] are the same in IC50: 339 nM for the first, 339 nM for the second.

Going from `COc1cc(Nc2ncc3c(n2)N(C)C(c2ccc(F)cc2F)CO3)ccc1-c1ccnc(C)c1` (single isomer, unassigned; (-)) [Example 63A] to `Cc1cc(-c2ccc(Nc3ncc4c(n3)N(C)C(c3ccc(F)cc3F)CO4)cc2F)ccn1` (single isomer, unassigned; (-)) [Example 66B], the IC50 rises from 543 nM to 1100 nM (2-fold). The first is the more potent here.

Compared with `Cc1cn(-c2ccc(Nc3ncc4c(n3)N(C)C(c3ccccc3OC(F)(F)F)CO4)cc2F)cn1` (single isomer, unassigned; (-)) [Example 64B], `Cc1cn(-c2ccc(Nc3ncc4c(n3)N(C)C(c3ccccc3C(F)(F)F)CO4)cc2F)cn1` (single isomer, unassigned; (-)) [Example 84B] is 1.8-fold lower in IC50: 741 nM for the first, 421 nM for the second.

First: Cc1cn(-c2ccc(Nc3ncc4c(n3)N(C)C(c3ccccc3Cl)CO4)cc2F)cn1 (single isomer, unassigned; (-)) [Example 67B]
Second: Cc1cn(-c2ccc(Nc3ncc4c(n3)N(C)C(c3ccc(F)cc3F)CO4)cc2F)cn1 (single isomer, unassigned; (-)) [Example 69B]
The IC50 of the first is lower: 643 nM for the first, over 3000 nM for the second. The first is the more potent here.

Compared with `COc1cc(Nc2ncc3c(n2)N(C)C(c2cc(C(F)(F)F)ccc2Cl)CO3)ccc1-n1cnc(C)c1` (single isomer, unassigned; (-)) [Example 88B], `COc1cc(Nc2ncc3c(n2)N(C)C(c2ccc(F)cc2C(F)(F)F)CO3)ccc1-n1cnc(C)c1` (single isomer, unassigned; (-)) [Example 94A] is 3.7-fold lower in IC50: 286 nM for the first, 78 nM for the second.

For `COc1cc(Nc2ncc3c(n2)N(C)C(c2ccc(Cl)cc2Cl)CO3)ccc1-n1cnc(C)c1` (single isomer, unassigned; (-)) [Example 95A], the IC50 was 116 nM.
